From patent publication US10851075B2, “Stat3 pathway inhibitors and cancer stem cell inhibitors” (Sumitomo Dainippon Pharma Oncology, Inc., priority 2007, dated 2020)
Read-outs that look alike come from different tables or passages of the source.

What was measured:
[1] = test system: HeLa cells; test: MTT cell viability, HeLa; format: cell-based; settings: Homo sapiens, MTT at 24 hours
Description: (§1) Cell Culture: HeLa, DU145, H1299, DLD1, SW480, A549, MCF7, LN18, HCT116, HepG2, Paca2, Panel, LNcap, FaDu, HT29, and PC3 cells (ATCC, Manassas, Va.) were maintained in Dulbecco's Modified Eagle Medium (DMEM) (Invitrogen, Carlsbad, Calif.) supplemented with 10% fetal bovine serum (MS) (Gemini Bio-Products, West Sacramento, Calif.) and 5% penicillin/streptomycin/amphotercin B (Invitrogen).
(§2) Cell Viability Determination: For 3-(4,5 dimethylthiazol-2-yl)-2,5-diphenyltetrazolium (MTT) (Sigma-Aldrich, St. Louis, Mo.) analysis, cells were plated in 96 well plates at 10,000 cells per well. 24 hours after plating, compound was added to cells at indicated doses. 22 hours following compound addition, MTT was added to each well (0.5 mg/ml, final concentration) and plates were incubated for an additional 2 hours at 37° C., Medium was then aspirated and the formazan product was solubilized in 100 μl of isopropyl alcohol. The absorbance of each well was measured at 570 nm using a microplate reader.
(§3) Identification of compounds that are apoptotic to a broad spectrum of cancer cells in vitro. Cells plated in 96 well plates and treated with indicated compounds were subjected to MTT analysis at 24 hours following compound treatment to determine cell viability.

[2] = test system: DU145 cells; test: MTT cell viability, DU145; format: cell-based; settings: Homo sapiens, DU-145, MTT at 24 hours
Description: as §1, §2, §3

[3] = target: T1, Stat3 DNA-binding activity (Homo sapiens, UniProt P40763); test: Stat3 DNA binding assay (EMSA), HeLa nuclear extract; format: biochemical; settings: for inhibition % 1 × MTT IC50: compound at 1 × MTT IC50, untreated Stat3 retarded band set as 100; for inhibition % 3 × MTT IC50: compound at 3 × MTT IC50, untreated Stat3 retarded band set as 100
T1 construct: endogenous in cells; host or cells: HeLa cells (nuclear extract)
T1 sequence (P40763 whole entry): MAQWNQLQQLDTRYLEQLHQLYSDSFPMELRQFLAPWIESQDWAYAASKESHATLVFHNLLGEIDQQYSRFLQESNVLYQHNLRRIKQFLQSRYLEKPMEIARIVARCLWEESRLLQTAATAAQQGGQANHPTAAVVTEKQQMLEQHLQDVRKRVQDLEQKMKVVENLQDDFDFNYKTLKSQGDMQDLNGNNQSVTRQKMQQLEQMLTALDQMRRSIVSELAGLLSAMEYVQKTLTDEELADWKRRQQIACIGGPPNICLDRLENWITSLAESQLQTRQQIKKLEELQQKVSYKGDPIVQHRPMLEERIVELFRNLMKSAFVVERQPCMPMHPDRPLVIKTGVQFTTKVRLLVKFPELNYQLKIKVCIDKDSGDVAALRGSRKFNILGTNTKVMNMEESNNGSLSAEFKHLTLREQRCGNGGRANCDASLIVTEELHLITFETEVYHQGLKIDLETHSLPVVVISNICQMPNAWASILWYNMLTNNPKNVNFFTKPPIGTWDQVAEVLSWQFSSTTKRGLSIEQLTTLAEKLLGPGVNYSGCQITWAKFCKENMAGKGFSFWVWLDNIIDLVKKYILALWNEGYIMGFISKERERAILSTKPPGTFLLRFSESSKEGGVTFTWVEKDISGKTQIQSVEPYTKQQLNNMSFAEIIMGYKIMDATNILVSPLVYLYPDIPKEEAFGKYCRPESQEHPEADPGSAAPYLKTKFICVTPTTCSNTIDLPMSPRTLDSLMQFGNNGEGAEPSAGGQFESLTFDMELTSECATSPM
Procedure: STAT3 DNA Binding Assay: Electrophoretic mobility shift assay (EMSA) was performed as described by the manufacturer (Li-Cor Biosciences, Lincoln, Nebr.). Briefly, nuclear extracts were made from HeLa cells using the NucBuster Protein Extraction Kit as described by the manufacturer (EMD Biosciences, San Diego, Calif.). 5 μg of nuclear extract was pre-incubated with the indicated dose of indicated compound for 30 minutes prior to a 15-minute incubation with the IR700-labeled consensus Stat3 oligonucleotide. Samples were then electrophoresed on a polyacrylamide gel and directly scanned using the Odyssey infrared imaging system (Li-Cor Biosciences). For the enzyme-linked immunosorbent assay (ELISA), 5 μg of nuclear extract was preincubated with indicated concentration of indicated compound for 30 minutes prior to the addition of biotinylated oligo (5′-Biotin-[…]-3′). Stat3-DNA complexes were then captured on streptavidin coated 96 well plates (Pierce, Rockford, Ill.). Bound complexes were then incubated with Stat3 polyclonal antibody (Santa Cruz Biotechnology, Santa Cruz, Calif.) followed by anti-rabbit HRP conjugated secondary antibody (GE Healthcare, Pittsburgh, Pa.). Bound antibody was then visualized by addition of TMB substrate (Pierce) and absorbance measured at 450 nm.
Inhibition of Stat3 DNA-binding activity. Nuclear extracts from HeLa cells, which contain constitutively activated Stat3 as detected by phoshporylation at the tyrosine 705 residue, were used to perform Stat3 EMSAs to monitor Stat3 DNA binding activity. Nuclear extracts were incubated with indicated compound prior to incubation with IR700-labeled Stat3 consensus oligonucleotide. Binding of Stat3 to the oligonucleotide was monitored by gel electrophoresis and detection using a LiCor Odyssey infrared scanner.
To calculate the inhibition %, the density of the untreated Stat3 retarded band (control) was set as 100 and the inhibition % was the difference between the control and the relative DNA binding activity of the drug-treated samples.

[4] = test system: CD44^high FaDu cells; test: Anti-CSC MTT assay, CD44high FaDu cells; format: cell-based; settings: Homo sapiens, 48 h
Procedure: as §2
CD44^high cells were isolated by FACS according to the methods described in Ponti et al., with slight modification. Briefly, after trypsinization and recovery of cells for 30 minutes at 37° C. in growth media, cells were pelleted at 400×g and were resuspended in PBS with 2% FBS and 1 mM EDTA at 1×10^6 cells/mL. Cells were then incubated on ice with a 1:100 dilution of CD44-FITC (BD Biosicences, San Diego, Calif.) for 15 minutes. Alternatively, CD24-PE (BD Bioscences, San Diego, Calif.) (1:100) was utilized for negative selection. After washing three times, cells were resuspended at 2×10^6/mL and passed through a […] mesh before sorting
(§4) In order to test compounds for anti-CSC activity, freshly isolated CSCs (SW480 Hoechst SP cells or CD44^high FaDu cells) were exposed to a dose range (30-0.117 μM) of compound for 48 h before examining cell viability by MTT assay. IC50s were estimated by plotting the percentage of surviving cells. As shown in Table 7 and Table 8, the compounds of present invention can target cancer stem cells.

[5] = test system: CD44^low FaDu cells; test: Anti-CSC MTT assay, CD44low FaDu cells; format: cell-based; settings: Homo sapiens, 48 h
[6] = test system: FaDu cells; test: MTT cell viability, FaDu; format: cell-based; settings: Homo sapiens, MTT at 24 hours, Table 4, read-out: IC50 (μM) FaDu
Description: as §1, §2, §3

[7] = test system: SW480 Hoechst SP cells; test: Anti-CSC MTT assay, SW480 Hoechst side population (SP) cells; format: cell-based; settings: Homo sapiens, 48 h
Procedure: as §2
(§5) Hoechst Side Population: To identify and isolate side population (SP) and non-SP fractions, SW480 cells were removed from the culture dish with trypsin and EDTA, pelleted by centrifugation, washed with phosphate-buffered saline (PBS), and resuspended at 37° C. in Dulbecco's modified Eagle's medium (DMEM) containing 2% FBS and 1 rnM HEPES. The cells were then labeled with Hoechst 33342 (Invitrogen) at a concentration of 5 μg/mL. The labeled cells were incubated for 120 minutes at 37° C., either alone or with 50 μM verapamil (Sigma-Aldrich, St. Louis). After staining, the cells were suspended in Hanks' balanced saline solution (MISS; Invitrogen) containing 2% FBS and 1 mM HEPES, passed a through 40 μm mesh filter, and maintained at 4° C. until flow cytometry analysis. The Hoechst dye was excited at 350 nm, and its fluorescence was measured at two wavelengths using a 450 DF10 (450/20 nm band-pass filter) and a 675LP (675 nm long-pass edge filter) optical filter. The gating on forward and side scatter was not stringent, and only debris was excluded.
as §4

[8] = test system: SW480 NSP cells; test: Anti-CSC MTT assay, SW480 non-SP (NSP) cells; format: cell-based; settings: Homo sapiens, 48 h
Procedure: as §2, §5, §4

[9] = test system: A549 cells; test: MTT cell viability, A549; format: cell-based; settings: Homo sapiens; A549, Lung; MTT at 24 hours following compound treatment; Table 3
Description: as §1, §2, §3

[10] = test system: H1299 cells; test: MTT cell viability, H1299; format: cell-based; settings: Homo sapiens, NCI-H1299, MTT at 24 hours
Description: as §1, §2, §3

[11] = test system: MCF7 cells; test: MTT cell viability, MCF7; format: cell-based; settings: Homo sapiens; MCF7, Breast; MTT at 24 hours; Table 3
Description: as §1, §2, §3

[12] = test system: DLD1 cells; test: MTT cell viability, DLD1; format: cell-based; settings: Homo sapiens, DLD-1; DLD1, Colon; MTT at 24 hours; Table 3
Description: as §1, §2, §3

[13] = test system: SW480 cells; test: MTT cell viability, SW480; format: cell-based; settings: Homo sapiens; SW480, Colon; MTT at 24 hours; Table 3
Description: as §1, §2, §3

[14] = test system: HCT116 cells; test: MTT cell viability, HCT116; format: cell-based; settings: Homo sapiens, HCT-116; HCT116, Colon; MTT at 24 hours; Table 3
Description: as §1, §2, §3

[15] = test system: HT29 cells; test: MTT cell viability, HT29; format: cell-based; settings: Homo sapiens, HT-29; HT29, Colon; MTT at 24 hours; Table 3
Description: as §1, §2, §3

[16] = test system: Paca2 cells; test: MTT cell viability, Paca2; format: cell-based; settings: PaCa-2; Paca2, Pancreas; MTT at 24 hours; Table 3
Description: as §1, §2, §3

[17] = test system: Panc1 cells; test: MTT cell viability, Panc1; format: cell-based; settings: Homo sapiens, PANC-1; Panc1, Pancreas; MTT at 24 hours; Table 3
Description: as §1, §2, §3

[18] = test system: PC3 cells; test: MTT cell viability, PC3; format: cell-based; settings: Homo sapiens, PC-3; PC3, Prostate; MTT at 24 hours; Table 3
Description: as §1, §2, §3

[19] = test system: Stat3 transcription activity; test: Stat3-luciferase (Stat3-Luc) reporter assay in HeLa cells, OSM stimulated; format: cell-based; settings: Homo sapiens, compound 30 minutes before 25 ng/ml oncostatin M, 6 hours, read-out: IC50 in Stat3-Luc assays
Procedure: Luciferase Reporter Assay: HeLa Cells were co-transfected with Stat3-luciferase (Stat3-Luc) reporter vector (Panomics, Fremont, Calif.) and Renilla luciferase (Promega, Madison, Wis.) using Lipofectamine 2000 as described by the manufacturer (Invitrogen). Following transfection, cells were maintained in medium containing 0.5% FBS for 24 hours. Cells were then treated with the indicated compound for 30 minutes prior to the addition of 25 ng/ml oncostatin M (OSM) (R&D Systems, Minneapolis, Minn.) to the medium. 6 hours following OSM addition, cells were harvested and levels of firefly and renilla luciferase were measured using the Dual-Glo Luciferase Assay System as described by the manufacturer (Promega).
Inhibition of Stat3 transcription activity. Compounds were tested for their ability to inhibit Stat3 transcription activation activity in cells using a Stat3-luciferase (Stat3-luc) reporter construct. Cells transfected with Stat3-luc were cultured in reduced serum medium prior to addition of indicated compound for 30 minutes. Cells were then stimulated with 25 ng/ml oncostatin (OSM) for 6 hours followed by detection of Stat3-luc reporter activity.

[20] = Hela, Table 4, read-out: IC50 (μM) Hela
[21] = DU145, Table 4, read-out: IC50 (μM) DU145
[22] = H1299, Lung, Table 3, read-out: IC50
[23] = H1299, Table 4, read-out: IC50 (μM) H1299
[24] = HeLa, Cervix, Table 3, read-out: IC50
[25] = DU145, Prostate, Table 3, read-out: IC50

## C=Cc1cc2c(o1)C(=O)c1cc(F)ccc1C2=O [Compound 202]
[1]; [20]
  IC50: 4.56 µM
[2]; [21]
  IC50: 2.65 µM
[3]
  inhibition % 1 × MTT IC50: 50%
  inhibition % 3 × MTT IC50: 46%
[4]
  IC50: 2.4 µM
[5]
  IC50: 2.25 µM

## CC(O)c1cc2c(o1)C(=O)c1cc(F)ccc1C2=O (centres unmarked) [Compound 304]
[1]; [20]
  IC50: 1.67 µM
[2]; [21]
  IC50: 1.84 µM
[3]
  inhibition % 1 × MTT IC50: 25%
  inhibition % 3 × MTT IC50: 55%
[4]
  IC50: 2.41 µM
[5]
  IC50: 2.49 µM

## CC(=O)c1oc2c(c1CBr)C(=O)c1ccccc1C2=O [Compound 420]
[6]
  IC50: 3.5 µM
[3]
  inhibition % 1 × MTT IC50: 47%
  inhibition % 3 × MTT IC50: 63%
[7]
  IC50: 0.59 µM
[8]
  IC50: 0.51 µM

## CC(=O)c1cc2c(o1)C(=O)c1cc(F)ccc1C2=O [Compound 418]
[9]
  IC50: 1.06 µM
[10]; [22]
  IC50: 0.34 µM
[10]; [23]
  IC50: 0.317 µM
[11]
  IC50: 0.46 µM
[1]; [24]
  IC50: 0.8 µM
[1]; [20]
  IC50: 0.488 µM
[12]
  IC50: 0.64 µM
[13]
  IC50: 0.76 µM
[14]
  IC50: 0.61 µM
[15]
  IC50: 1.83 µM
[16]
  IC50: 0.21 µM
[17]
  IC50: 1.54 µM
[2]; [25]
  IC50: 0.18 µM
[2]; [21]
  IC50: 0.164 µM
[18]
  IC50: 3.04 µM
[3]
  inhibition % 1 × MTT IC50: 39%
  inhibition % 3 × MTT IC50: 63%
[7]
  IC50: 0.34 µM
[8]
  IC50: 0.33 µM

## O=C(c1ccccc1)c1cc2c(o1)C(=O)c1ccccc1C2=O [Compound 412]
[9]
  IC50: 3.16 µM
[10]; [22]
  IC50: 0.52 µM
[10]; [23]
  IC50: 0.524 µM
[11]
  IC50: 1.15 µM
[1]; [24]
  IC50: 1.69 µM
[1]; [20]
  IC50: 1.69 µM
[12]
  IC50: 1.11 µM
[13]
  IC50: 1.31 µM
[14]
  IC50: 2.02 µM
[15]
  IC50: 4.64 µM
[16]
  IC50: 0.64 µM
[17]
  IC50: 3.69 µM
[2]; [25]
  IC50: 0.33 µM
[2]; [21]
  IC50: 0.327 µM
[18]
  IC50: 4.45 µM
[19]
  IC50: ~0.75 µM

## CC(=O)c1cc2c(o1)C(=O)c1cc(Cl)ccc1C2=O [Compound 416]
[9]
  IC50: 1.9 µM
[10]; [22]
  IC50: 0.25 µM
[10]; [23]
  IC50: 0.337 µM
[11]
  IC50: 0.75 µM
[1]; [24]
  IC50: 0.62 µM
[1]; [20]
  IC50: 0.711 µM
[12]
  IC50: 0.54 µM
[13]
  IC50: 0.44 µM
[14]
  IC50: 0.69 µM
[15]
  IC50: 1.91 µM
[16]
  IC50: 0.21 µM
[17]
  IC50: 2.59 µM
[2]; [25]
  IC50: 0.22 µM
[2]; [21]
  IC50: 0.211 µM
[18]
  IC50: 3.1 µM
[3]; HeLa nuclear extract, FIG. 6A/6B
  inhibition of Stat3 DNA binding (in words): inhibits Stat3 DNA-binding activity
